In patent publication US20100298141A1, “SUBSTITUTED PYRIDINE N-OXIDE HERBICIDES” (E. I. DU PONT DE NEMOURS AND COMPANY, priority 2007, published 2010):

Tests used:
[1] = test system: corn; assay: Test C pre-/postemergence test; format: in vivo, Zea mays
Summary of the method: (§1)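 Seeds were planted and treated preemergence with test chemical in a non-phytotoxic solvent mixture containing surfactant. Postemergence applications of the same formulation went onto plants 2 to 18 cm tall (1- to 4-leaf stage). A dash marks no test result.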

[2] = test system: cocklebur; assay: Test C pre-/postemergence test; format: in vivo, Xanthium strumarium
Summary of the method: as §1

[3] = test system: kochia; assay: Test C pre-/postemergence test; format: in vivo, Kochia scoparia; conditions: for Plant response rating, Kochia: 31 g ai/ha, scale 0 to 100 (0 no effect, 100 complete control)
Summary of the method: as §1

[4] = test system: pigweed; assay: Test C pre-/postemergence test; format: in vivo, Amaranthus retroflexus
Summary of the method: as §1

[5] = test system: common (oilseed) sunflower; assay: Test C pre-/postemergence test; format: in vivo, Helianthus annuus; conditions: for Plant response rating, Sunflower: 31 g ai/ha, scale 0 to 100 (0 no effect, 100 complete control)
Summary of the method: as §1

[6] = test system: wheat; assay: Test C pre-/postemergence test; format: in vivo, Triticum aestivum; conditions: for Plant response rating, Wheat: 31 g ai/ha, scale 0 to 100 (0 no effect, 100 complete control)
Summary of the method: as §1

[7] = test system: blackgrass; assay: Test C pre-/postemergence test; format: in vivo, Alopecurus myosuroides; conditions: for Plant response rating, Blackgrass: 31 g ai/ha, scale 0 to 100 (0 no effect, 100 complete control)
Summary of the method: as §1

[8] = test system: soybean; assay: Test C pre-/postemergence test; format: in vivo, Glycine max
Summary of the method: as §1

[9] = test system: yellow nutsedge; assay: Test C pre-/postemergence test; format: in vivo, Cyperus esculentus; conditions: for Plant response rating, Nutsedge, Yellow: 31 g ai/ha, scale 0 to 100 (0 no effect, 100 complete control)
Summary of the method: as §1

[10] = test system: woolly cupgrass; assay: Test C pre-/postemergence test; format: in vivo, Eriochloa villosa
Summary of the method: as §1

[11] = test system: morningglory; assay: Test A pre-/postemergence greenhouse test; format: in vivo, Ipomoea spp.; conditions: for Plant response rating, Morningglory: 0 to 100 scale where 0 is no effect and 100 is complete control; for Morningglory plant response rating: 0 to 100 scale
Summary of the method: (§2)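 Each test compound, dissolved in a non-phytotoxic solvent mixture with surfactant, was sprayed directly onto seeded soil (loam/sand blend) and, at the same moment, onto seedlings carrying one to two leaves. Around ten greenhouse days later, plants were rated visually for injury relative to untreated controls.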

[12] = test system: morningglory; assay: Test C pre-/postemergence test; format: in vivo, Ipomoea coccinea; conditions: for Plant response rating, Morningglory: 31 g ai/ha, scale 0 to 100 (0 no effect, 100 complete control)
Summary of the method: as §1

[13] = test system: green foxtail; assay: Test C pre-/postemergence test; format: in vivo, Setaria viridis; conditions: for Plant response rating, Foxtail, Green: 31 g ai/ha, scale 0 to 100 (0 no effect, 100 complete control)
Summary of the method: as §1

[14] = test system: umbrella sedge; assay: Test C flooded paddy test; format: in vivo, Cyperus difformis; conditions: Flood
Summary of the method: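 Visual injury ratings against untreated controls, taken 13 to 15 days after compound was added to paddy water standing 3 cm above the soil.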

[15] = test system: barnyardgrass; assay: Test A pre-/postemergence greenhouse test; format: in vivo, Echinochloa crus-galli; conditions: for Plant response rating, Barnyardgrass: 0 to 100 scale where 0 is no effect and 100 is complete control; for Barnyardgrass plant response rating: 0 to 100 scale
Summary of the method: as §2

[16] = test system: crabgrass; assay: Test C pre-/postemergence test; format: in vivo, Digitaria sanguinalis; conditions: for Plant response rating, Crabgrass, Large: 31 g ai/ha, scale 0 to 100 (0 no effect, 100 complete control)
Summary of the method: as §1

[17] = test system: Italian ryegrass; assay: Test C pre-/postemergence test; format: in vivo, Lolium multiflorum; conditions: for Plant response rating, Ryegrass, Italian: 31 g ai/ha, scale 0 to 100 (0 no effect, 100 complete control)
Summary of the method: as §1

[18] = 62 g ai/ha, Preemergence, scale 0 to 100
[19] = 125 g ai/ha, preemergence, scale 0 (no effect) to 100 (complete control)
[20] = preemergence, 250 g ai/ha, scale 0 (no effect) to 100 (complete control)
[21] = Postemergence, 500 g ai/ha, 0 is no effect, 100 is complete control
[22] = Preemergence, 125 g ai/ha, 0 no effect, 100 complete control
[23] = 250 g ai/ha, scale 0 to 100, 0 no effect, 100 complete control, 13 to 15 days
[24] = Preemergence, 31 g ai/ha, scale 0 to 100 (0 no effect, 100 complete control)

CCn1nc(C(F)(F)F)c(C[S+]([O-])c2cc(C)cc[n+]2[O-])c1OCC(F)(F)F (racemic) [Compound 66]
Corn plant response rating [1, 18]: 80
Corn plant response rating [1, 19]: 100
Corn plant response rating [1, 20]: 100
Cocklebur plant response rating [2, 18]: 0
Cocklebur plant response rating [2, 20]: 85
Kochia plant response rating [3, 18]: 100
Kochia plant response rating [3, 19]: 100
Plant response rating, Kochia ([3]; Preemergence): 100
Kochia plant response rating [3, 20]: 100
Pigweed plant response rating [4, 18]: 30
Pigweed plant response rating [4, 19]: 100
Pigweed plant response rating [4, 20]: 100
Sunflower plant response rating [5, 18]: 80
Sunflower plant response rating [5, 19]: 80
Plant response rating, Sunflower ([5]; Preemergence): 30
Sunflower plant response rating [5, 20]: 98
Wheat plant response rating [6, 18]: 85
Wheat plant response rating [6, 19]: 98
Plant response rating, Wheat ([6]; Preemergence): 0
Wheat plant response rating [6, 20]: 100
Blackgrass plant response rating [7, 18]: 70
Blackgrass plant response rating [7, 19]: 100
Plant response rating, Blackgrass ([7]; Preemergence): 50
Blackgrass plant response rating [7, 20]: 100
Soybean plant response rating [8, 19]: 80
Nutsedge, Yellow plant response rating [9, 18]: 30
Nutsedge, Yellow plant response rating [9, 19]: 40
Plant response rating, Nutsedge, Yellow ([9]; Preemergence): 30
Nutsedge, Yellow plant response rating [9, 20]: 50
Cupgrass, Woolly plant response rating [10, 18]: 85
Cupgrass, Woolly plant response rating [10, 19]: 100
Cupgrass, Woolly plant response rating [10, 20]: 100
Plant response rating, Morningglory ([11]; Postemergence, 125 g ai/ha): 60
Morningglory plant response rating [11, 21]: 90
Morningglory plant response rating [11, 22]: 70
Plant response rating, Morningglory ([11]; Preemergence, 500 g ai/ha): 100
Morningglory plant response rating [12, 18]: 90
Morningglory plant response rating [12, 19]: 90
Plant response rating, Morningglory ([12]; Preemergence): 50
Morningglory plant response rating [12, 20]: 100
Foxtail, Green plant response rating [13, 18]: 100
Foxtail, Green plant response rating [13, 19]: 100
Plant response rating, Foxtail, Green ([13]; Preemergence): 85
Foxtail, Green plant response rating [13, 20]: 100
Plant response rating, Sedge, Umbrella ([14]; 62 g ai/ha, scale 0 to 100 (0 no effect, 100 complete control)): 85
Plant response rating, Sedge, Umbrella [14, 23]: 100
Plant response rating, Barnyardgrass ([15]; Postemergence, 125 g ai/ha): 70
Barnyardgrass plant response rating [15, 21]: 90
Barnyardgrass plant response rating [15, 22]: 60
Plant response rating, Barnyardgrass ([15]; Preemergence, 500 g ai/ha): 100
Crabgrass, Large plant response rating [16, 18]: 100
Crabgrass, Large plant response rating [16, 19]: 100
Plant response rating, Crabgrass, Large ([16]; Preemergence): 100
Crabgrass, Large plant response rating [16, 20]: 100
Ryegrass, Italian plant response rating [17, 18]: 90
Ryegrass, Italian plant response rating [17, 19]: 100
Plant response rating, Ryegrass, Italian ([17]; Preemergence): 55

CC(c1c(C(F)(F)F)nn(CC(F)(F)F)c1Cl)[S+]([O-])c1cccc[n+]1[O-] (centres unmarked) [Compound 46]
Corn plant response rating [1, 18]: 0
Corn plant response rating [1, 19]: 0
Plant response rating, Corn [1, 24]: 0
Corn plant response rating [1, 20]: 55
Cocklebur plant response rating [2, 18]: 0
Cocklebur plant response rating [2, 19]: 0
Plant response rating, Cocklebur [2, 24]: 0
Cocklebur plant response rating [2, 20]: 10
Kochia plant response rating [3, 18]: 50
Kochia plant response rating [3, 19]: 100
Plant response rating, Kochia ([3]; Preemergence): 50
Kochia plant response rating [3, 20]: 100
Pigweed plant response rating [4, 18]: 90
Pigweed plant response rating [4, 19]: 100
Plant response rating, Pigweed [4, 24]: 0
Pigweed plant response rating [4, 20]: 100
Sunflower plant response rating [5, 18]: 0
Sunflower plant response rating [5, 19]: 0
Plant response rating, Sunflower ([5]; Preemergence): 0
Sunflower plant response rating [5, 20]: 40
Wheat plant response rating [6, 18]: 100
Wheat plant response rating [6, 19]: 100
Plant response rating, Wheat ([6]; Preemergence): 100
Wheat plant response rating [6, 20]: 100
Blackgrass plant response rating [7, 18]: 100
Blackgrass plant response rating [7, 19]: 100
Plant response rating, Blackgrass ([7]; Preemergence): 70
Blackgrass plant response rating [7, 20]: 100
Soybean plant response rating [8, 18]: 0
Soybean plant response rating [8, 19]: 0
Plant response rating, Soybean [8, 24]: 0
Soybean plant response rating [8, 20]: 25
Nutsedge, Yellow plant response rating [9, 18]: 60
Nutsedge, Yellow plant response rating [9, 19]: 65
Plant response rating, Nutsedge, Yellow ([9]; Preemergence): 60
Nutsedge, Yellow plant response rating [9, 20]: 100
Cupgrass, Woolly plant response rating [10, 18]: 80
Cupgrass, Woolly plant response rating [10, 19]: 95
Plant response rating, Cupgrass, Woolly [10, 24]: 80
Cupgrass, Woolly plant response rating [10, 20]: 95
Plant response rating, Morningglory ([11]; Postemergence, 125 g ai/ha): 0
Morningglory plant response rating [11, 21]: 60
Morningglory plant response rating [11, 22]: 30
Plant response rating, Morningglory ([11]; Preemergence, 500 g ai/ha): 90
Morningglory plant response rating [12, 18]: 100
Morningglory plant response rating [12, 19]: 100
Plant response rating, Morningglory ([12]; Preemergence): 100
Morningglory plant response rating [12, 20]: 100
Foxtail, Green plant response rating [13, 18]: 98
Foxtail, Green plant response rating [13, 19]: 100
Plant response rating, Foxtail, Green ([13]; Preemergence): 95
Foxtail, Green plant response rating [13, 20]: 100
Plant response rating, Sedge, Umbrella [14, 23]: 70
Plant response rating, Barnyardgrass ([15]; Postemergence, 125 g ai/ha): 70
Barnyardgrass plant response rating [15, 21]: 80
Barnyardgrass plant response rating [15, 22]: 80
Plant response rating, Barnyardgrass ([15]; Preemergence, 500 g ai/ha): 100
Crabgrass, Large plant response rating [16, 18]: 100
Crabgrass, Large plant response rating [16, 19]: 100
Plant response rating, Crabgrass, Large ([16]; Preemergence): 100
Crabgrass, Large plant response rating [16, 20]: 100
Ryegrass, Italian plant response rating [17, 18]: 55
Ryegrass, Italian plant response rating [17, 19]: 80
Plant response rating, Ryegrass, Italian ([17]; Preemergence): 0
Ryegrass, Italian plant response rating [17, 20]: 100
